From patent US20260224538A1 (Purdue Research Foundation, priority 2023, published 2026)

Assays:
[1] = system: M17D neuroblastoma cells that express inclusion-prone αS-3K::YFP; assay: α-Syn inclusion-forming neuroblastoma cell experiment; assay type: cell-based; conditions: 40 μM; t=96 hours
Experimental: α-Syn (or αS) inclusion-forming neuroblastoma cell experiment. Dox-inducible neuroblastoma cells M17D-TR/αS-3K::YFP have been used previously. 96-well plates were used with a cellular density of 30,000 cells per well. Compounds were added […], and αS-3K::YFP transgene expression was induced […]. Induction was done by adding 1 μg per mL (final concentration) dox to culture media. Cells were incubated in the Incucyte Zoom 2000 platform (Essen Biosciences), and images (green, bright field) were taken continuously. Endpoint analysis of inclusion formation or growth was performed 48 hours after induction (96 hours after plating). The Incucyte processing definition ‘Inclusions’ was created as follows: Parameters, Fixed Threshold, Threshold (GCU) 50; Edge Split On, Edge Sensitivity 100; Cleanup, Hole Fill (μm^2): 10, Adjust Size (pixels): 0; Filters, Area (μm^2): max 50, Mean Intensity: min 60, Integrated Intensity: min 2000. Cell confluence was measured by the processing definition ‘Cells’: Parameters, Segmentation Adjustment 0.7; Cleanup, all parameters set to 0; Filters, Area (μm^2): min 345.00. As described previously for the evaluation of protein expression by SDS-PAGE and Western Blotting in the LiCor system, αS-specific monoclonal antibody 4B12 (Thermofisher, Waltham, MA; 1:1000) and a polyclonal antibody to GAPDH (Sigma-Aldrich, St. Louis, MO, G9545; 1:5000) were used.

α-syn [2] = biological target: T1, α-syn (Homo sapiens, UniProt P37840); assay: Transmission electron microscopy (TEM) of α-syn fibrils; assay type: biochemical; conditions: compound 100 μM
T1 construct: purchased rPeptide
Experimental: (§1) Transmission electron microscopy (TEM). After performing analysis with ThT fluorescence assay, TEM was utilized to detect fibril formation. A volume of 10 μL was applied to a 400-mesh Formvar-carbon-coated copper grid (Electron Microscopy Sciences, Hatfield, PA). The grids were incubated for 1 minute and washed three times with distilled water. They were carefully air-dried and incubated for 1 minute in a fresh solution of 1% uranyl acetate. Samples were air-dried and observed using a transmission microscope. Visualization of the grids was performed with TEM (JEOL 1400 Flash, Japan). Acquisition of pictures was performed with settings of accelerating voltage of 100 kV and magnification of 25 k and/or 40 k.

IAPP = biological target: T2, IAPP (Homo sapiens, UniProt P10997); assay: TEM of IAPP fibrils; assay type: biochemical; conditions: compound 100 μM, IAPP 10 μM, PBS
T2 construct: Human islet amyloid polypeptide (IAPP) was procured from AnaSpec; purchased AnaSpec; host or cells: synthetic peptide
T2 sequence (P10997 34-70 limits assumed): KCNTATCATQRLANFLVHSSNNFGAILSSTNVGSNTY
Experimental: as §1

[3] = biological target: T3, transthyretin fragment peptide (TTR81-127) (Homo sapiens, UniProt P02766); assay: ThT fluorescence assay of TTR81-127 fibril formation; assay type: biochemical
T3 construct: TTR fragment 81-127 was obtained from AnaSpec; purchased AnaSpec; host or cells: synthetic peptide
Experimental: (§2) Thioflavin-T (ThT) fluorescence assays. Thioflavin-T (ThT) fluorescence assays were used to monitor fibril formation of recombinant Ap (fragments 1-40 and 1-42), recombinant α-syn, recombinant tau isoform 2N4R, synthetic IAPP, and synthetic TTR peptides treated with BTA and its derivatives. The IAPP ThT assay was performed in 10 mM PBS (pH 7.4) at a final concentration of 10 μM for both IAPP and ThT as published previously. Aβ fragments 1-40 and 1-42 were tested at 7 μM in 10 mM of PBS using ThT at a final concentration of 20 μM. Kinetics of α-syn fibrillization were performed as published previously.^36-37 TTR fragment kinetics of fibril formation were assessed at 10 μM in 100 mM sodium acetate buffer supplemented with 100 mM KCl and 1 mM ethylenediaminetetraacetic acid (EDTA) (pH 4) with 20 μM ThT. The fluorescence emission experiments were performed with the excitation and emission wavelengths set at 440 and 485 nm, respectively, with a Synergy HT multi-mode microplate reader (BioTek, Winooski, VT). Samples were measured in three replicates, and the experiments were repeated three times using at least two different stock solutions. For each time point, arbitrary units of fluorescence were calculated from the mean values normalized against the maximum value in each completed assay. The lag time for each condition was calculated as previously described. All results contained in histograms were presented as mean±SEM. Data were analyzed by the one-way analysis of variance with Dunnett's multiple comparisons between controls and compounds. Differences were considered statistically significant at p<0.05.

TTR101-125 = biological target: T4, TTR101-125 (Homo sapiens, UniProt P02766); assay: ThT fluorescence assay of TTR101-125 fibril formation; assay type: biochemical
T4 construct: TTR fragments 1-25, 26-50, 51-75, 76-100, 81-105, 101-125, and 101-125 were obtained from GenScript; purchased GenScript; host or cells: synthetic peptide
Experimental: as §2

tau isoform 2N4R [4] = biological target: T5, tau isoform 2N4R (Homo sapiens, UniProt P10636); assay: PICUP, tau isoform 2N4R oligomerization; assay type: biochemical; conditions: compound 50 μM
T5 construct: made in house; host or cells: E. coli BL21(DE3)
Experimental: (§3) The bacterial expression plasmid consisting of the vector pRK172 carrying a cDNA encoding the human Tau 2N4R isoform was obtained from Dr. David Eliezer (Weill Cornell Medicine, New York, NJ). For protein expression, E. coli BL21(DE3) cells were transformed with the plasmid and grown in LB media supplemented with ampicillin (100 μg/mL). Protein over-expression was induced by the addition of 1 mM IPTG for 4 hours at 37° C., and cells were pelleted by centrifugation at 6,000 g for 15 minutes at 4° C. The cells were resuspended in lysis buffer (20 mM MES, 400 mM NaCl, 0.2 mM MgCl2, 1 mM EGTA, protease inhibitor cocktail (P8340, Sigma Aldrich), 0.25 mg/mL lysozyme, and 1 μg/mL DNase 1, pH 6.8) and lysed by a French press cell disruptor at 4° C., after which the lysate was boiled for 20 minutes. Denatured proteins were pelleted by centrifugation at 30,000 g for 30 minutes at 4° C., and the supernatant was dialyzed overnight against cation exchange buffer (20 mM MES, 50 mM NaCl, 1 mM MgCl2, 1 mM EGTA, 2 mM DTT, 0.1 mM PMSF, pH 6.8). The dialysate was loaded onto a HiPrep SP HP column, and proteins were eluted with a linear gradient ranging from 50 mM to 1 M NaCl. Fractions containing tau isoform 2N4R were pooled, and the resulting protein solution was dialyzed against PBS (pH 7.4) and stored at −80° C.
(§4) Photo-induced Cross-linking of Unmodified Proteins (PICUP) Assay. To induce oligomerization by cross-linking, α-syn (from Rpeptide, LLC) and tau isoform 2N4R were diluted in 10 mM phosphate buffer (pH 7.4) to reach a final concentration of 10 μM. Different compounds were added to the protein solution at a final concentration of 50 μM, resulting in a molar ratio of 1:5. To confirm the gradual effect of the compounds on the inhibition of α-syn oligomerization, the compounds were tested at final concentrations of 3.125, 6.25, 12.5, 25, and 50 μM. The controls consisted of samples without light exposition, without Ru(bpy) or ammonium persulfate, and without compound (i.e., 0.125% DMSO). The cross-linking reaction was initiated by the addition of 2 μL of Ru(bpy) (300 μM final concentration) and 2 μL ammonium persulfate (6 mM final concentration). Samples were irradiated immediately. Light exposure was of a one-second duration for α-syn and a three-second duration for tau isoform 2N4R, with a 53 W (120 V) incandescent lamp installed in a homemade dark-box. Each tube contained a final volume of 20 μL. After irradiation, 8.3 μL of Laemmli loading buffer containing 15% β-mercaptoethanol were immediately added to the solution, followed by incubation at 95° C. for 10 minutes. The cross-linked samples were separated on a 16% SDS-PAGE gel and visualized by Coomassie blue staining.

TTR81-127 = biological target: T6, TTR81-127 (Homo sapiens, UniProt P02766); assay: TEM of TTR81-127 fibrils; assay type: biochemical; conditions: compound 100 μM, TTR81-127 10 μM, sodium acetate buffer pH 4
T6 construct: TTR fragment 81-127 was obtained from AnaSpec; purchased AnaSpec; host or cells: synthetic peptide

α-syn [5] = biological target: T1, α-syn; assay: Photo-induced cross-linking of unmodified proteins (PICUP), α-syn oligomerization; assay type: biochemical; conditions: compound 50 μM, molar ratio 1:5 (protein:compound)
Experimental: as §4

Aβ1-42 = biological target: T7, Aβ1-42 (Homo sapiens, UniProt P05067); assay: ThT fluorescence assay of Aβ1-42 fibril formation; assay type: biochemical; conditions: screen on prone-to-aggregate proteins (FIG. 2A, FIG. 4A); Aβ 7 μM
T7 construct: α-syn, Aβ1-40, Aβ1-42 were procured from rPeptide; purchased rPeptide
Experimental: as §2

tau isoform 2N4R [6] = biological target: T5, tau isoform 2N4R; assay: ThT kinetics of tau isoform 2N4R fibril formation; assay type: biochemical; conditions: tau 6 μM, compound 100 μM
Experimental: as §3
(§5) Compounds with the highest anti-fibrillary activity were tested at 3.125, 6.25, 12.5, 25, 50, and 100 μM to obtain dose-response curves with prepared α-syn and 2N4R tau at 6.25 μM and 6 μM, respectively. Compounds were tested with α-syn using a previously published procedure. Concerning the tau (isoform 2N4R) kinetics of fibril formation, measurements of ThT fluorescence were performed with a solution of the protein diluted to a final concentration of 6 μM in PBS (pH 7.4) supplemented with 1.5 μM heparin, 20 μM ThT, 2.5 mM DTT, and 100 μM compound. Aliquots of the diluted protein solution (100 μL each) were pipetted into the wells of a 96-well plate, and a Teflon ball was added to each well. The plate was incubated at 37° C. with constant shaking at 1,000 rpm in a Tecan Spark plate reader. ThT fluorescence was measured every 15 minutes with excitation and emission wavelengths of 440 nm and 480 nm, and the data were plotted using GraphPad Prism.

α-syn [7] = biological target: T1, α-syn; assay: Photo-induced cross-linking of unmodified proteins (PICUP), α-syn oligomerization; assay type: biochemical; conditions: compound 200 μM
α-synuclein (α-syn) = biological target: T8, α-synuclein (α-syn) (Homo sapiens, UniProt P37840); assay: Thioflavin-T (ThT) fluorescence assay of α-syn fibril formation; assay type: biochemical; conditions: compounds at 100 μM; α-syn 6.25 μM; control 0.25% DMSO; read-out: ThT a-Syn (%), maximum thioflavin T (ThT) intensity in percentage
T8 construct: purchased rPeptide
Experimental: as §2, §5

[8] = compound 100 μM, molar ratio 1:10

T5 sequence (P10636 1-441 isoform P10636-8): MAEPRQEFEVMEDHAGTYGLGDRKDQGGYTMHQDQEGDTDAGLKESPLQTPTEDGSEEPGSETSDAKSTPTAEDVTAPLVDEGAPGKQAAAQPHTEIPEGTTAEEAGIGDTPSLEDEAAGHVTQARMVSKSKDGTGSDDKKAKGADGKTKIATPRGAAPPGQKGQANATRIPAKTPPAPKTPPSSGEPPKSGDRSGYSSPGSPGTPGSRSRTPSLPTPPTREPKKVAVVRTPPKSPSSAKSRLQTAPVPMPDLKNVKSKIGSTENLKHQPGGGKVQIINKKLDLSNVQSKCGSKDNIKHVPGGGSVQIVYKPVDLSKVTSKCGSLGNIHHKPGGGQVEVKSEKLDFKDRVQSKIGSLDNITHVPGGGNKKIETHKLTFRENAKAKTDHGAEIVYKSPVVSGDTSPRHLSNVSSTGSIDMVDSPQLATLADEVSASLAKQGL
T7 sequence (P05067 672-713 limits assumed): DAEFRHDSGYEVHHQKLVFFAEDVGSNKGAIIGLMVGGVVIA

Row | cell confluence [1] | α-syn fibrils by TEM (α-syn [2]) | IAPP fibrils by TEM (IAPP) | TTR81-127 fibril formation (ThT) [3, 8] | TTR101-125 fibril formation (ThT) (TTR101-125; compound 25 μM, molar ratio 1:2.5) | TTR101-125 fibril formation (ThT) (TTR101-125; [8]) | TTR81-127 fibrils by TEM (TTR81-127) | thioflavin T fluorescence intensity, Aβ1-42 (Aβ1-42) [%] | remaining activity at 100 µM ([3]; compounds at 100 μM, TTR81-127 10 μM, control 0.25% DMSO, read-out: ThT TTR81-127 (%), maximum thioflavin T (ThT) intensity in percentage) [%] | lag time of tau isoform 2N4R fibril formation (tau isoform 2N4R [6]) | remaining activity at 100 µM (α-synuclein (α-syn)) [%] | Compound | number of αS-3K::YFP inclusions [1] | tau isoform 2N4R oligomer formation (PICUP) (tau isoform 2N4R [4]) | α-syn oligomer formation (PICUP) (α-syn [5]) | production of tau isoform 2N4R fibrils (ThT kinetic aggregation curves) (tau isoform 2N4R [6]) | α-syn oligomer formation (PICUP) at high concentration (α-syn [7])
1 | reduction in confluence | no such branching was observed | no such branching was observed | reduced fibril formation | continued to reduce TTR101-125 fibrils | reduced fibril formation | reduced fibril formation | 22.59±0.71 |  |  |  | Nc1ccc(-c2nc3ccccc3s2)cc1 [BTA, 4-(2-benzothiazolyl)aniline, reference compound] | did not affect the number of inclusions | not successful in preventing oligomerization | not successful in preventing oligomerization |  | 
2 |  |  |  |  |  |  |  |  | 73.4 ± 1.9 | delayed the lag time | 16.4 ± 7.8 | CCNC(=O)N(C(=O)NCC)c1nsc2ccc([N+](=O)[O-])cc12 [Compound 13, N-ethyl-1-[(ethylcarbamoyl)(5-nitro-1,2-benzothiazol-3-yl)amino]formamide] |  |  |  | reduced the production of tau isoform 2N4R fibrils | reduced substantially the oligomer formation
